From patent US20240343729A1 (priority 2021, published 2024)

Legend:
[1] = molecular target: T1, Human PDE10A2 (Homo sapiens (Human), UniProt Q9Y233); assay: cell-based; conditions: Forskolin 10 μM; read-out: cAMP HTRF Assay in HEK 293 rhPDE10A2 cell line (pIC50) (converted)
Method: Semi log compound dilutions starting at a final concentration of 10 μM were dispensed into a white 384 well plate, alongside DMSO and an Inhibited control using the Tecan D300e digital dispenser. HEK 293 cells overexpressing recombinant human PDE10A2 were seeded on top of the compounds at 2500 cells/well in a volume 5 μL/well. The plate was incubated at room temperature for 60 minutes. To induce endogenous cAMP, 5 μL/well of Forskolin at a final assay concentration of 10 μM was added to the plate. The plate was incubated at room temperature for a further 45 minutes. cAMP HTRF detection reagents were added, and the plate was incubated for 60 minutes at room temperature. […] Data was analysed using a 4-parameter fit.

[2] = molecular target: T1, Human PDE10A2; assay: biochemical; assay type: biochemical; conditions: human PDE10A2 0.25 nM, cGMP 3 μM
Method: Semi Log compound dilutions starting at a final concentration of 50 μM were dispensed into a black 384 well plate alongside, DMSO and an Inhibited control using the Echo Acoustic dispenser. […] Data was analysed using a 4-parameter fit.

T1 sequence (Q9Y233 267-1055): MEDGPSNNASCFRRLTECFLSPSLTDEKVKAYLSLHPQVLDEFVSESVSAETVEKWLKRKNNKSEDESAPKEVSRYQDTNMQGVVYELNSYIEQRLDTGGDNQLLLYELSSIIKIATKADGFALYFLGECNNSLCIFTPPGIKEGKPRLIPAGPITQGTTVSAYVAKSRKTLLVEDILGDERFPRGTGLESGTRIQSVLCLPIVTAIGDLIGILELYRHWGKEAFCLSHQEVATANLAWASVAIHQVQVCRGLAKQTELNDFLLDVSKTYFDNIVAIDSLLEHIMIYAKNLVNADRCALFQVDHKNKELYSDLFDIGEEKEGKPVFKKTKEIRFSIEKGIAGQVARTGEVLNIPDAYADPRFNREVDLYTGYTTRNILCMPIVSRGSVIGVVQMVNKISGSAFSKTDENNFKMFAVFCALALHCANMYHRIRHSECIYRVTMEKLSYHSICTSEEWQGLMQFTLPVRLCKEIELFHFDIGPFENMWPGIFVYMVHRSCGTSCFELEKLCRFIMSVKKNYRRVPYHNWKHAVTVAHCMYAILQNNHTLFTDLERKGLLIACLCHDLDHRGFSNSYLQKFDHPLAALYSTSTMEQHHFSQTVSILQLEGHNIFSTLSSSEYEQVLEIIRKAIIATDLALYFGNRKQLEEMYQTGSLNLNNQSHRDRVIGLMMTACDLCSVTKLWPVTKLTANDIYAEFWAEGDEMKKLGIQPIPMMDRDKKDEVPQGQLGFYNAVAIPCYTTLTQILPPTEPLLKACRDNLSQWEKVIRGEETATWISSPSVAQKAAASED

SMILES | IC50 [1] [nM] | PDE10A2 Phosphate Sensor Enzyme Assay (pIC50) [2] | IC50 ([2]; read-out: PDE10A2 Phosphate Sensor Enzyme Assay (pIC50) (converted)) [nM]
Cn1cc(-c2ccccc2)nc1C#Cc1nc(N2CC3(COC3)C2)c2ncn(C)c2n1 [Example 1, 6-[9-Methyl-2-[2-(1-methyl-4-phenyl-imidazol-2-yl)ethynyl]purin-6-yl]-2-oxa-6-azaspiro[3.3]heptane] | 1.17 | 9.26 | –
Cn1ncc2c(N3C[C@H]4COC[C@H]4C3)nc(C#Cc3nc(-c4ccccc4)c[nH]3)nc21 [Example 9, (3aS,6aR)-5-[1-methyl-6-[2-(4-phenyl-1H-imidazol-2-yl)ethynyl]pyrazolo[3,4-d]pyrimidin-4-yl]-1,3,3a,4,6,6a-hexahydrofuro[3,4-c]pyrrole] | 0.603 | – | 0.0251
CCn1ncc2c(N3C[C@H]4COC[C@H]4C3)nc(C#Cc3nc(-c4ccccc4)cn3C)nc21 [Example 17, (3aR,6aS)-5-(1-Ethyl-6-((1-methyl-4-phenyl-1H-imidazol-2-yl)ethynyl)-1H-pyrazolo[3,4-d]pyrimidin-4-yl)hexahydro-1H-furo[3,4-c]pyrrole] | 0.331 | 10.50 | –
Cn1cc(-c2ccccc2)nc1C#Cc1nc2c(c(N3CCOCC3)n1)CCNC2 [Example 11, 4-[2-[2-(1-Methyl-4-phenyl-imidazol-2-yl)ethynyl]-5,6,7,8-tetrahydropyrido[3,4-d]pyrimidin-4-yl]morpholine] | 1.86 | 9.80 | –
Cn1cc(-c2ccccc2)nc1C#Cc1nc2c(c(N3CCOCC3)n1)CCN(C1COC1)C2 [Example 14, 4-[2-[2-(1-Methyl-4-phenyl-imidazol-2-yl)ethynyl]-7-(oxetan-3-yl)-6,8-dihydro-5H-pyrido[3,4-d]pyrimidin-4-yl]morpholine] | 1.78 | 9.35 | –
C[C@@H]1COCCN1c1nc(C#Cc2nc(-c3ccccc3)cn2C)nc2c1ncn2C [Example 21, (R)-3-Methyl-4-(9-methyl-2-((1-methyl-4-phenyl-1H-imidazol-2-yl)ethynyl)-9H-purin-6-yl)morpholine] | 0.417 | 10.30 | –
C[C@@H]1COCCN1c1nc(C#Cc2nc(-c3ccccc3)cn2C)nc2c1CCNC2 [Example 12, (3R)-3-Methyl-4-[2-[2-(1-methyl-4-phenyl-imidazol-2-yl)ethynyl]-5,6,7,8-tetrahydropyrido[3,4-d]pyrimidin-4-yl]morpholine] | 0.437 | 10.40 | –
C[C@H]1COCCN1c1nc(C#Cc2nc(-c3cccnc3)c[nH]2)nc2c1ncn2C [Example 33, (S)-3-Methyl-4-(9-methyl-2-((4-(pyridin-3-yl)-1H-imidazol-2-yl)ethynyl)-9H-purin-6-yl)morpholine] | 17.4 | 8.68 | –
Cn1cc(-c2ccccc2)nc1C#Cc1nc(N2C[C@H]3COC[C@H]3C2)c2cnn(C3COC3)c2n1 [Example 19, (3aR,6aS)-5-(6-((1-Methyl-4-phenyl-1H-imidazol-2-yl)ethynyl)-1-(oxetan-3-yl)-1H-pyrazolo[3,4-d]pyrimidin-4-yl)hexahydro-1H-furo[3,4-c]pyrrole] | 11.2 | 9.41 | –
C[C@@H]1COCCN1c1nc(C#Cc2nc(-c3cccnc3)c[nH]2)nc2c1ncn2C [Example 32, (R)-3-Methyl-4-(9-methyl-2-((4-(pyridin-3-yl)-1H-imidazol-2-yl)ethynyl)-9H-purin-6-yl)morpholine] | 2.34 | 9.90 | –
C[C@@H]1COCCN1c1nc(C#Cc2nc(-c3ccccc3)c[nH]2)nc2c1ncn2C [Example 29, (R)-3-Methyl-4-(9-methyl-2-((4-phenyl-1H-imidazol-2-yl)ethynyl)-9H-purin-6-yl)morpholine] | 3.47 | 9.92 | –
Cn1cc(-c2ccccc2)nc1C#Cc1nc(N2CC3(COC3)C2)c2cnn(C3CCOCC3)c2n1 [Example 6, 6-[6-[2-(1-Methyl-4-phenyl-imidazol-2-yl)ethynyl]-1-tetrahydropyran-4-yl-pyrazolo[3,4-d]pyrimidin-4-yl]-2-oxa-6-azaspiro[3.3]heptane] | 14.8 | 9.20 | –
CC(C)n1ncc2c(N3C[C@H]4COC[C@H]4C3)nc(C#Cc3nc(-c4ccccc4)cn3C)nc21 [Example 18, (3aR,6aS)-5-(1-isoPropyl-6-((1-methyl-4-phenyl-1H-imidazol-2-yl)ethynyl)-1H-pyrazolo[3,4-d]pyrimidin-4-yl)hexahydro-1H-furo[3,4-c]pyrrole] | 0.617 | 9.99 | –
Cn1cc(-c2ccccc2)nc1C#Cc1nc2c(c(N3CCOCC3)n1)CCN(CC1CC1)C2 [Example 15, 4-[7-(Cyclopropylmethyl)-2-[2-(1-methyl-4-phenyl-imidazol-2-yl)ethynyl]-6,8-dihydro-5H-pyrido[3,4-d]pyrimidin-4-yl]morpholine] | 562 | 8.72 | –
Cn1cnc2c(N3CC4(COC4)C3)nc(C#Cc3nc(-c4ccccc4)cn3CCN3CCOCC3)nc21 [Example 5, 6-[9-Methyl-2-[2-[1-(2-morpholinoethyl)-4-phenyl-imidazol-2-yl]ethynyl]purin-6-yl]-2-oxa-6-azaspiro[3.3]heptane] | 0.427 | 9.37 | –
Cn1cc(-c2ccccc2)nc1C#Cc1nc(N2CCS(=N)(=O)CC2)c2cnn(C)c2n1 [Example 24, 1-Imino-4-(1-methyl-6-((1-methyl-4-phenyl-1H-imidazol-2-yl)ethynyl)-1H-pyrazolo[3,4-d]pyrimidin-4-yl)-1l6-thiomorpholine 1-oxide] | 1.2 | 10.10 | –
Cn1cc(-c2ccccc2)nc1C#Cc1nc(N2C[C@H]3COC[C@H]3C2)c2cnn(CC3CC3)c2n1 [Example 16, (3aR,6aS)-5-(1-(Cyclopropylmethyl)-6-((1-methyl-4-phenyl-1H-imidazol-2-yl)ethynyl)-1H-pyrazolo[3,4-d]pyrimidin-4-yl)hexahydro-1H-furo[3,4-c]pyrrole] | 4.17 | 10.10 | –
Cn1cc(-c2ccccc2)nc1C#Cc1nc(N2CC3(COC3)C2)c2cnn(C)c2n1 [Example 3, 6-[1-Methyl-6-[2-(1-methyl-4-phenyl-imidazol-2-yl)ethynyl]pyrazolo[3,4-d]pyrimidin-4-yl]-2-oxa-6-azaspiro[3.3]heptane] | 0.275 | 9.99 | –
CC(C)n1ncc2c(N3C[C@H]4COC[C@H]4C3)nc(C#Cc3nc(-c4ccccc4)c[nH]3)nc21 [Example 25, (3aR,6aS)-5-(1-isoPropyl-6-((4-phenyl-1H-imidazol-2-yl)ethynyl)-1H-pyrazolo[3,4-d]pyrimidin-4-yl)hexahydro-1H-furo[3,4-c]pyrrole] | – | 9.95 | –
C[C@H]1COCCN1c1nc(C#Cc2nc(-c3ccccc3)cn2C)nc2c1ncn2C [Example 22, (S)-3-Methyl-4-(9-methyl-2-((1-methyl-4-phenyl-1H-imidazol-2-yl)ethynyl)-9H-purin-6-yl)morpholine] | – | 9.22 | –
C(#Cc1nc(-c2ccccc2)c[nH]1)c1nc(N2C[C@H]3COC[C@H]3C2)c2cnn(CC3CC3)c2n1 [Example 26, (3aR,6aS)-5-(1-(Cyclopropylmethyl)-6-((4-phenyl-1H-imidazol-2-yl)ethynyl)-1H-pyrazolo[3,4-d]pyrimidin-4-yl)hexahydro-1H-furo[3,4-c]pyrrole] | – | 9.99 | –
